Measurements published in patent publication US20190099421A1, “CINNOLIN-4-AMINE COMPOUNDS AND THEIR USE IN TREATING CANCER” (AstraZeneca AB, priority 2016, published 2019).

Target: T1, ATM (Homo sapiens, UniProt Q13315)
T1 construct: endogenous in cells; host or cells: HT29 cells (ECACC #85061109)
Assay: Assay a): ATM cellular potency (pATM Ser1981 in irradiated HT29 cells)
Type: cell-based
Conditions: 1 h compound incubation, X-ray irradiation ~600 cGy, pATM (Ser1981) staining 1 h later; read-out: Assay a) ATM Cell IC50
Experimental: IC50 values were calculated using a smart fitting model in Genedata.
Most ATM molecules in the cell are rapidly phosphorylated on this site after doses of radiation as low as 0.5 Gy, and binding of a phosphospecific antibody is detectable after the introduction of only a few DNA double-strand breaks in the cell.
The rationale of the pATM assay is to identify inhibitors of ATM in cells. HT29 cells are incubated with test compounds for 1 hr prior to X-ray-irradiation. 1 h later the cells are fixed and stained for pATM (Ser1981). The fluorescence is read on the arrayscan imaging platform.
The following morning compounds of Formula (I) in 100% DMSO were added to assay plates by acoustic dispensing. After 1 h incubation at 37° C. and 5% CO2, plates (up to 6 at a time) were irradiated using the X-RAD 320 instrument (PXi) with equivalent to ˜600 cGy. Plates were returned to the incubator for a further 1 h. […] Then 20 μl of 0.1% Triton X100 in PBS was added and incubated for 20 minutes at r.t., to permeabalise cells. Then the plates were washed once with 50 μl/well PBS, using a Biotek EL405 plate washer.
After 1 h incubation at r.t., the plates were washed three times with 50 μl/well PBS, using a Biotek EL405 plate washer, and plates were sealed and kept in PBS at 4° C. until read. Plates were read using an ArrayScan VTI instrument, using an XF53 filter with 10× objective.

T1 sequence (Q13315 whole entry): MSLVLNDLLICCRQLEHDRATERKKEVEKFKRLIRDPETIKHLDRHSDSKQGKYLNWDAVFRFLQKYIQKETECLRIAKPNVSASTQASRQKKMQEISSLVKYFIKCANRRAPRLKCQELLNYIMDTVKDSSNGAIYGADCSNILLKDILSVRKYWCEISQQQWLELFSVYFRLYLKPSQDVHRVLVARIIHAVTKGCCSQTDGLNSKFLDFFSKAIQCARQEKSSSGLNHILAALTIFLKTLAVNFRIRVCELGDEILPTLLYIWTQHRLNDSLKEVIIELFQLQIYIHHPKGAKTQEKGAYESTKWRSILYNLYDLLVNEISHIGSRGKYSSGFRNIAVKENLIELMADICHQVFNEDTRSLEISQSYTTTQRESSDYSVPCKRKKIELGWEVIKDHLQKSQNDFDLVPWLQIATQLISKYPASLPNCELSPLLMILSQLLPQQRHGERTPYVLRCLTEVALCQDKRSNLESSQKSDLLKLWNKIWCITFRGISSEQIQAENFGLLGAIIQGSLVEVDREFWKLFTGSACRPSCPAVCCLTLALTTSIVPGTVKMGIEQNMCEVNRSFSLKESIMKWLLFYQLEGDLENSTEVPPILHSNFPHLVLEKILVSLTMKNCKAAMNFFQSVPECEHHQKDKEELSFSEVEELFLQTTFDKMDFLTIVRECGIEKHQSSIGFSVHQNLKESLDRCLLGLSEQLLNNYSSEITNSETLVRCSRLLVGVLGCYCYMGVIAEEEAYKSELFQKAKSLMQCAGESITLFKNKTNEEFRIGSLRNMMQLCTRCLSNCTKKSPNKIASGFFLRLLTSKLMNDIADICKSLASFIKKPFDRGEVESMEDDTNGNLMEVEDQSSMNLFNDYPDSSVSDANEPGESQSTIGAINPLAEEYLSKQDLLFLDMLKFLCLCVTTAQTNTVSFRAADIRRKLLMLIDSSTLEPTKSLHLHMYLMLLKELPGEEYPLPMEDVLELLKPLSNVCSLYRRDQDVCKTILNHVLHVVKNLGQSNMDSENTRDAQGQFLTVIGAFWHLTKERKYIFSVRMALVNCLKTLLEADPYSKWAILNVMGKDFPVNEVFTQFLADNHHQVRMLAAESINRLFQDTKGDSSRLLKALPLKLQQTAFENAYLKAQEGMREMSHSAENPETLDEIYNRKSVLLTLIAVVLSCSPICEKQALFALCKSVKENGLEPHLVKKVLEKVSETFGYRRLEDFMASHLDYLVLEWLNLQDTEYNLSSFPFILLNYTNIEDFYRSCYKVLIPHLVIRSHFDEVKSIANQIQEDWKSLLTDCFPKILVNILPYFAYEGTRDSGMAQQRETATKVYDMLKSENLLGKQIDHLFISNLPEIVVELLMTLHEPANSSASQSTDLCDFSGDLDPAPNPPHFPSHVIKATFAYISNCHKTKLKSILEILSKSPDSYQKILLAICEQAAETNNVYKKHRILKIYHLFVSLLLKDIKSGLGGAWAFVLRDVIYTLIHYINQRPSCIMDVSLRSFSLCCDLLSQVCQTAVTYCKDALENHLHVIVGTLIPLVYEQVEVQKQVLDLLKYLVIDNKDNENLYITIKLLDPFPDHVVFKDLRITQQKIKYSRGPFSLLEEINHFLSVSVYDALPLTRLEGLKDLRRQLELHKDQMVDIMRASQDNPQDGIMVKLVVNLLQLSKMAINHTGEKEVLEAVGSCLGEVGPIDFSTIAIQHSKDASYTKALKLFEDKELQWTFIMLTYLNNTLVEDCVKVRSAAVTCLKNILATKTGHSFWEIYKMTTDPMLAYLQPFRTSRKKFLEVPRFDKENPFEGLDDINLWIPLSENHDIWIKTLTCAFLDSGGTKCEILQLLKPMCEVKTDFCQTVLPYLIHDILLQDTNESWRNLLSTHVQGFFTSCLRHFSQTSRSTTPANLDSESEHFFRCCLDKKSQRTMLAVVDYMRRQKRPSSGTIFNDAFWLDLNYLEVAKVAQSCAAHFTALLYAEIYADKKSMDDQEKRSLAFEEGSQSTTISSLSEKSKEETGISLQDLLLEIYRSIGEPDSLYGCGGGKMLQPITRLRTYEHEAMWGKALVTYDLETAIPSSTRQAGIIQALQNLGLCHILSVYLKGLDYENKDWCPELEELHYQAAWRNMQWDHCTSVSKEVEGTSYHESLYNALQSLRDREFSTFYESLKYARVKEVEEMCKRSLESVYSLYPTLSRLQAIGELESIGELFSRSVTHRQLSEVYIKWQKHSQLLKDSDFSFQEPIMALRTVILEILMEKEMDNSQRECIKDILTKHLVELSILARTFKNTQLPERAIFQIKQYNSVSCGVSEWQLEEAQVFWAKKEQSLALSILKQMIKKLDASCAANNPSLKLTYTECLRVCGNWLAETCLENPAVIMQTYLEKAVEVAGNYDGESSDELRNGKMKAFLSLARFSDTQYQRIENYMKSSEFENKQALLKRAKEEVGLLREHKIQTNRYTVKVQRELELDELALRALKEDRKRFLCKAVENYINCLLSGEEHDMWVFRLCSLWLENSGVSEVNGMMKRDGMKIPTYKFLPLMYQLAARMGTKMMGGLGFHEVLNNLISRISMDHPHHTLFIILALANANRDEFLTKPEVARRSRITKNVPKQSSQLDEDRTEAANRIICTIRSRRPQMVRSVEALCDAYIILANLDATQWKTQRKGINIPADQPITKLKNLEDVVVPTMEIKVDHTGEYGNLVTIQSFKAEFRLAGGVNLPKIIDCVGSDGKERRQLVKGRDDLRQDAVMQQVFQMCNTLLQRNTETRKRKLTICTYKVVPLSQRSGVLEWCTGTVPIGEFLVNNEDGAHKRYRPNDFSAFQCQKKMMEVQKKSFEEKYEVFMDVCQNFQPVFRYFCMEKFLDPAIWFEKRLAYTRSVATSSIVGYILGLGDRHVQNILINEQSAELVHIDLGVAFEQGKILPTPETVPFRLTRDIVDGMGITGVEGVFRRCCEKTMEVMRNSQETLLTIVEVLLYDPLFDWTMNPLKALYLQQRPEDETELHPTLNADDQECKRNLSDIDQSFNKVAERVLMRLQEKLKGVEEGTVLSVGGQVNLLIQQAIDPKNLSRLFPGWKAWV

IC50 [nM] | Structure (SMILES)
7.72 | CNCCCOc1ccc(-c2ccc3nnc(C(N)=O)c(N[C@@H](C)C4CCOCC4)c3c2)cn1 [Example 4, 6-[6-(3-Methylaminopropoxy)pyridin-3-yl]-4-[[(1S)-1-(oxan-4-yl)ethyl]amino]cinnoline-3-carboxamide]
4.91 | CNCCCOc1ccc(-c2ccc3nnc(C(=O)NC)c(N[C@@H](C)C4CCOCC4)c3c2)cn1 [Example 5, N-Methyl-6-[6-(3-methylaminopropoxy)pyridin-3-yl]-4-[[(1S)-1-(oxan-4-yl)ethyl]amino]cinnoline-3-carboxamide]
